# Reference: US12371454B2, “Cyclic peptide compound having Kras inhibitory action” (priority 2019, dated 2025)
# Starred links: 1 amine or outer side, 2 acyl side, 3 side chain; linkers in the order of their positions; H or OH if unused. Positions of bridges follow the written chain, without caps; N, C: chain ends. Non-standard residues stand in square brackets, D forms with d. Residues, ends and D or L forms follow the SMILES beside them. *: point of attachment. hPhe(3-Cl-4-CF3) = N[C@@H](CCc1ccc(C(F)(F)F)c(Cl)c1)C(=O)O; hPhe(3-F,4-CF3) = N[C@@H](CCc1ccc(C(F)(F)F)c(F)c1)C(=O)O; NMePhe(2-CF3) = CN[C@@H](Cc1ccccc1C(F)(F)F)C(=O)O; hPhe(4-CF3) = N[C@@H](CCc1ccc(C(F)(F)F)cc1)C(=O)O; NMePhe(4-Cl) = CN[C@@H](Cc1ccc(Cl)cc1)C(=O)O; NMePhe(4-Me) = CN[C@@H](Cc1ccc(C)cc1)C(=O)O; X54 = O=C([C@H](Cc1cccc(Br)c1F)N[*:1])[*:2]; NMeNle(6-CHF2) = CN[C@@H](CCCCC(F)F)C(=O)O; NMePhe(2-Cl) = CN[C@@H](Cc1ccccc1Cl)C(=O)O; X41 = O=C([C@H](Cc1cccc(I)c1F)N[*:1])[*:2]; hPhe(4-Cl) = N[C@@H](CCc1ccc(Cl)cc1)C(=O)O; Phe(3-Br) = N[C@@H](Cc1cccc(Br)c1)C(=O)O; NMeGly(cPent) = CN[C@H](C(=O)O)C1CCCC1; X70 = CC(C)(O)COCCN(CC(=O)[*:2])[*:1]; NMeY = CN[C@@H](Cc1ccc(O)cc1)C(=O)O; NMeCha = CN[C@@H](CC1CCCCC1)C(=O)O; NMeF = CN[C@@H](Cc1ccccc1)C(=O)O; NMeI = CC[C@H](C)[C@H](NC)C(=O)O; αMeF = C[C@](N)(Cc1ccccc1)C(=O)O; NMeD = CN[C@@H](CC(=O)O)C(=O)O; NMeL = CN[C@@H](CC(C)C)C(=O)O; Chg = N[C@H](C(=O)O)C1CCCCC1; NMeV = CN[C@H](C(=O)O)C(C)C; d(β3hA) = C[C@@H](N)CC(=O)O; NMeAbu = CC[C@H](NC)C(=O)O; NMeA = CN[C@@H](C)C(=O)O; NMeAib = CNC(C)(C)C(=O)O; Nle = CCCC[C@H](N)C(=O)O; Piperidide = C1CCN(*)CC1; Pyrrolidide = C1CCN(*)C1; Ac5c = NC1(C(=O)O)CCCC1; Aze = O=C(O)[C@@H]1CCN1; Sar = CNCC(=O)O
# Biological target: T1, Kras and SOS1 (biotin-tagged human Kras loaded with GDP, His-tagged human SOS1) (Homo sapiens, UniProt P01116, G12D)
# T1 construct: made in house; host or cells: E. coli (stated for Kras only)
# Assay: Protein-protein interaction inhibition between Kras and SOS1 (KrasGl2D-SOS PPI) using AlphaScreen
# Format: binding
# Details: AlphaScreen; biotin-tagged human Kras loaded with GDP, His-tagged human SOS1; read-out: KRAS G12D-SOS PPI IC50
# Outline: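 Kras was produced in E. coli, purified, then loaded with GDP. It was paired via streptavidin acceptor beads with His-SOS1 held on nickel donor beads, and proximity signal at 520-620 nm was read after 680 nm illumination.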
# T1 sequence (P01116 1-188 isoform P01116-2 G12D): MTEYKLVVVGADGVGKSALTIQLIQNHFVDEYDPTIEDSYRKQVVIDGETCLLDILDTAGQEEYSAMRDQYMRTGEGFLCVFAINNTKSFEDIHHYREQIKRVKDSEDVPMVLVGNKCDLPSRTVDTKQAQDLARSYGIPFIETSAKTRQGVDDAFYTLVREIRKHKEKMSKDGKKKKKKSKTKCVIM
row,SMILES,IC50 [nM]
1,CCCC[C@@H]1NC(=O)[C@H](Cc2cccc(I)c2F)NC(=O)CN(C)C(=O)[C@H](Cc2ccc(OC)cc2)N(C)C(=O)[C@@H]2CCN2C(=O)[C@H](C)N(C)C(=O)[C@H]([C@@H](C)CC)NC(=O)[C@H](CC)N(C)C(=O)C[C@@H](C(=O)N2CCCCC2)N(C)C(=O)[C@H](CC(C)C)NC(=O)C(C)(C)N(C)C1=O [Compound 1249] ([NMeAbu]I[NMeA][Aze][NMeY](Me)[Sar][X41][Nle][NMeAib]L[NMeD]-Piperidide; lactam N-11),33
2,CC[C@H](C)[C@@H]1NC(=O)[C@H](CC(C)C)N(C)C(=O)C[C@@H](C)NC(=O)[C@H](C(C)C)N(C)C(=O)C2(CCCC2)NC(=O)[C@@H]2CCCN2C(=O)[C@H](CCc2ccc(C(F)(F)F)c(Cl)c2)NC(=O)CN(C)C(=O)[C@H](Cc2ccccc2C(F)(F)F)N(C)C(=O)CN(C)C(=O)CN(C)C1=O [Compound 1613] (cyclo([Ac5c][NMeV][d(β3hA)][NMeL]I[Sar][Sar][NMePhe(2-CF3)][Sar][hPhe(3-Cl-4-CF3)]P)),110
3,CCCC[C@@H]1NC(=O)[C@H](Cc2cccc(Br)c2F)NC(=O)CN(C)C(=O)[C@H](Cc2ccc(OC)cc2)N(C)C(=O)[C@@H]2CCN2C(=O)[C@H](C)N(C)C(=O)[C@H]([C@@H](C)CC)NC(=O)[C@H](CC)N(C)C(=O)C[C@@H](C(=O)N2CCCCC2)N(C)C(=O)[C@H](CC(C)C)NC(=O)C(C)(C)N(C)C1=O [Compound 1304] ([NMeAbu]I[NMeA][Aze][NMeY](Me)[Sar][X54][Nle][NMeAib]L[NMeD]-Piperidide; lactam N-11),85
4,CC[C@H](C)[C@@H]1NC(=O)[C@H](C)N(C)C(=O)C[C@@H](C)NC(=O)[C@H](CC(C)C)N(C)C(=O)[C@H](Cc2ccccc2)N(C)C(=O)[C@@H]2CCCN2C(=O)[C@H](CCc2ccc(C(F)(F)F)cc2)NC(=O)CN(C)C(=O)[C@H](Cc2ccc(Cl)cc2)N(C)C(=O)CN(C)C(=O)CN(C)C1=O [Compound 751] (cyclo(I[Sar][Sar][NMePhe(4-Cl)][Sar][hPhe(4-CF3)]P[NMeF][NMeL][d(β3hA)][NMeA])),82
5,CC[C@H](C)[C@@H]1NC(=O)[C@H](CC(C)C)N(C)C(=O)C[C@@H](C)NC(=O)[C@H](C(C)C)N(C)C(=O)C2(CCCC2)NC(=O)[C@@H]2CCCN2C(=O)[C@H](CCc2ccc(Cl)cc2)NC(=O)CN(C)C(=O)[C@H](CC2CCCCC2)N(C)C(=O)CN(C)C(=O)CN(C)C1=O [Compound 576] (cyclo([Ac5c][NMeV][d(β3hA)][NMeL]I[Sar][Sar][NMeCha][Sar][hPhe(4-Cl)]P)),230
6,CC[C@H](C)[C@@H]1NC(=O)[C@H](CC(C)C)N(C)C(=O)C[C@@H](C(=O)N(C)C)N(C)C(=O)[C@H](C2CCCC2)N(C)C(=O)C2(CCCC2)NC(=O)CN(CCOCC(C)(C)O)C(=O)[C@H](CCc2ccc(C(F)(F)F)c(Cl)c2)NC(=O)CN(C)C(=O)[C@H](CC2CCCCC2)N(C)C(=O)[C@@H]2CCN2C(=O)[C@H](C)N(C)C1=O [Compound 2023] ([NMeL]I[NMeA][Aze][NMeCha][Sar][hPhe(3-Cl-4-CF3)][X70][Ac5c][NMeGly(cPent)][NMeD]-NMe2; lactam N-11),1.7
7,CC[C@H](C)[C@@H]1NC(=O)[C@H](C)N(C)C(=O)C[C@@H](C(=O)N(C)C)N(C)C(=O)[C@H]([C@@H](C)CC)N(C)C(=O)C2(CCCC2)NC(=O)[C@H](Cc2ccccc2Cl)N(C)C(=O)[C@H](CCc2ccc(C(F)(F)F)c(Cl)c2)NC(=O)CN(C)C(=O)[C@H](Cc2ccc(C)cc2)N(C)C(=O)[C@@H]2CCN2C(=O)[C@H](C)N(C)C1=O [Compound 2011] ([NMeA]I[NMeA][Aze][NMePhe(4-Me)][Sar][hPhe(3-Cl-4-CF3)][NMePhe(2-Cl)][Ac5c][NMeI][NMeD]-NMe2; lactam N-11),17
8,CCCC[C@@H]1NC(=O)[C@H](Cc2cccc(Br)c2)NC(=O)CN(C)C(=O)[C@H](Cc2ccc(Cl)cc2)N(C)C(=O)[C@@H]2CCN2C(=O)[C@H](C)N(C)C(=O)[C@H]([C@@H](C)CC)NC(=O)[C@H](CC(C)C)N(C)C(=O)C[C@@H](C(=O)N2CCCCC2)N(C)C(=O)[C@H](CC(C)C)NC(=O)C(C)(C)N(C)C1=O [Compound 1415] ([NMeL]I[NMeA][Aze][NMePhe(4-Cl)][Sar][Phe(3-Br)][Nle][NMeAib]L[NMeD]-Piperidide; lactam N-11),34
9,CC[C@H](C)[C@@H]1NC(=O)[C@H](C)N(C)C(=O)C[C@@H](C(=O)N2CCCCC2)NC(=O)[C@H](CC(C)C)N(C)C(=O)[C@H](Cc2ccccc2)N(C)C(=O)[C@H](CC(C)C)NC(=O)[C@H](CCc2ccc(C(F)(F)F)c(Cl)c2)NC(=O)CN(C)C(=O)[C@H](Cc2ccc(Cl)cc2)N(C)C(=O)CN(C)C(=O)CN(C)C1=O [Compound 861] ([NMeA]I[Sar][Sar][NMePhe(4-Cl)][Sar][hPhe(3-Cl-4-CF3)]L[NMeF][NMeL]D-Piperidide; lactam N-11),4.5
10,"CC(C)C[C@H]1C(=O)N[C@@H](C2CCCCC2)C(=O)N(C)CC(=O)N(C)CC(=O)N(C)[C@@H](CCCCC(F)F)C(=O)N(C)CC(=O)N[C@@H](CCc2ccc(C(F)(F)F)c(F)c2)C(=O)N(C)[C@@H](CC(C)C)C(=O)N[C@@](C)(Cc2ccccc2)C(=O)N(C)[C@@H](CC(C)C)C(=O)N[C@H](C(=O)N2CCCC2)CC(=O)N1C [Compound 1450] ([NMeL][Chg][Sar][Sar][NMeNle(6-CHF2)][Sar][hPhe(3-F,4-CF3)][NMeL][αMeF][NMeL]D-Pyrrolidide; lactam N-11)",220
